Laboratory results published in patent US20090306060A1 (priority 2004, published 2009).
Like-named read-outs stand apart in the source and are kept apart here.

Tested on: hybrid corn varieties
Assay type: in vivo
Conditions: for GY BU (2) (Grain Yield in bushels) / PC # (1): IFSA Inbred FR-A
[1] = Fludioxonil 3.5 GA/100 Kg seed, Azoxystrobin 1 GA/100 Kg seed
[2] = IFSA Inbred FR-C, Fludioxonil 2.5 GA/100 Kg seed
[3] = IFSA Inbred FR-C, Fludioxonil 3.5 GA/100 Kg seed, Azoxystrobin 1 GA/100 Kg seed
[4] = IFSA Inbred FR-D, Fludioxonil 2.5 GA/100 Kg seed
[5] = IFSA Inbred FR-D, Fludioxonil 3.5 GA/100 Kg seed, Azoxystrobin 1 GA/100 Kg seed
[6] = IFSA Inbred FR-F, Fludioxonil 2.5 GA/100 Kg seed
[7] = IFSA Inbred FR-F, Fludioxonil 3.5 GA/100 Kg seed, Azoxystrobin 1 GA/100 Kg seed
[8] = IFSA Inbred FR-G, Fludioxonil 2.5 GA/100 Kg seed
[9] = IFSA Inbred FR-G, Fludioxonil 3.5 GA/100 Kg seed, Azoxystrobin 1 GA/100 Kg seed
[10] = IFSA Inbred W-A, Fludioxonil 2.5 GA/100 Kg seed
[11] = IFSA Inbred W-A, Fludioxonil 3.5 GA/100 Kg seed, Azoxystrobin 1 GA/100 Kg seed
[12] = IFSA Inbred W-B, Fludioxonil 2.5 GA/100 Kg seed
[13] = IFSA Inbred W-B, Fludioxonil 3.5 GA/100 Kg seed, Azoxystrobin 1 GA/100 Kg seed

| SMILES | GY BU (2) (Grain Yield in bushels) [1] [a BU] | PC # (1) [1] [a] | GY BU [3] | PC # [3] [ab] | GY BU [5] [a BU] | PC # [5] [a] | GY BU [7] | PC # [7] | GY BU [9] [a BU] | PC # [9] | GY BU [11] [ab BU] | PC # [11] [a] | GY BU [13] [a BU] | PC # [13] | also measured |
| --- | --- | --- | --- | --- | --- | --- | --- | --- | --- | --- | --- | --- | --- | --- | --- |
| N#Cc1c[nH]cc1-c1cccc2c1OC(F)(F)O2 [Fludioxonil, fludioxonil] | 180 | 23744 | 176 b BU | 23915 | 185 | 24599 | 225 a BU | 24428 a | 85 | 11787 ab | 180 | 19986 | 204 | 22036 b | GY BU (2) (Grain Yield in bushels) (Fludioxonil 2.5 GA/100 Kg seed): 181 a BU; PC # (1) (Fludioxonil 2.5 GA/100 Kg seed): 23403 a; GY BU [2]: 198 a BU; PC # [2]: 24428 a; GY BU [4]: 184 a BU; PC # [4]: 23574 a; GY BU [6]: 183 b BU; PC # [6]: 19986 b; GY BU [8]: 83 a BU; PC # [8]: 13495 a; GY BU [10]: 172 ab BU; PC # [10]: 19474 a; GY BU [12]: 215 a BU; PC # [12]: 24599 a |
| CO/C=C(/C(=O)OC)c1ccccc1Oc1cc(Oc2ccccc2C#N)ncn1 [Azoxystrobin, azoxystrobin] | 168 | 23232 | 187 ab BU | 24086 | 193 | 23574 | 179 b BU | 18107 bc | 89 | 13153 a | 173 | 19645 | 204 | 23574 ab |  |
